From US9556183B2, “Substituted pyrazolylpyrazole derivative and use of same as herbicide” (KYOYU AGRI CO., LTD., priority 2013, dated 2017) come the findings set out here.

Format in all cases: in vivo
Data set [1] concerns Echinochloa crus-galli. The experiment in a line: Paddy herbicidal activity test. As to conditions: irrigated paddy pot, treated at 3.5 leaf stage of Echinochloa crus-galli, 30 days. As for the experimental part: (§1) Rice paddy soil was filled into a 1/10000 are pot followed by the addition of suitable amounts of water and chemical fertilizer, kneading, seeding with Echinochloa crus-galli, Monochoria vaginalis and Scirpus juncoides and maintaining in an irrigated state at a water depth of 3 cm. Wettable powder of Target Compound (I) shown in Table 1 prepared in compliance with the preparation examples were diluted with a suitable amount of water, rice plants in the 2.0 leaf stage were transplanted during 3.5 leaf stage of Echinochloa crus-galli, and treated by dropping in chemical in the prescribed amount per are using a pipette. After treating for 30 days in a glass greenhouse at an average atmospheric temperature of 30° C., the herbicidal efficacy thereof was investigated. Evaluation of herbicidal efficacy was carried out by comparing growth inhibition rate (%) with an untreated group, while evaluation of phytotoxicity was carried out by comparing growth inhibition rate (%) with the state of a complete eradication group, and were evaluated at 11 levels indicated below. [table]

For data set [2], the system named is Monochoria vaginalis. The experiment in a line: Paddy herbicidal activity test. As to conditions: irrigated paddy pot, 30 days. How it is done: as §1
Data set [3] deals with Scirpus juncoides. The experiment in a line: Paddy herbicidal activity test. As to conditions: irrigated paddy pot, 30 days. As for the experimental part: as §1
Data set [4] relates to Rice plants. The data set can be described thus: Paddy herbicidal activity test, phytotoxicity to transplanted rice. As to conditions: rice transplanted at 2.0 leaf stage, 30 days. As for the experimental part: as §1
The test system of data set [5] is Amaranthus retroflexus. The data set can be described thus: Farming soil treatment test. As to conditions: soil surface spray prior to weed growth, 30 days. As for the experimental part: (§2) Evaluation of herbicidal efficacy was carried out by comparing growth inhibition rate (%) with an untreated group, while evaluation of phytotoxicity was carried out by comparing growth inhibition rate (%) with the state of a complete eradication group, and were evaluated at 11 levels indicated below. [table] Field soil was filled into a 1/6000 are pot followed by seeding with Digitaria ciliaris, Chenopodium album and Amaranthus retroflexus and covering with soil. Wettable powder of compounds of formula (I) shown in Table 1 prepared in compliance with the preparation examples were diluted with water to the prescribed amount of chemical and uniformly sprayed onto each soil surface layer using 10 liters of sprayed water per are prior to weed growth following seeding. After treating for 30 days in a glass greenhouse at an average atmospheric temperature of 30° C., the herbicidal efficacy thereof was investigated. Evaluation of herbicidal efficacy was carried out in the same manner as the above-mentioned Test Example 1.

In data set [6] the test system is Chenopodium album. The experiment in a line: Farming soil treatment test. As to conditions: soil surface spray prior to weed growth, 30 days. As for the experimental part: as §2
For data set [7], the system named is Digitaria ciliaris. The experiment in a line: Farming soil treatment test. As to conditions: soil surface spray prior to weed growth, 30 days. How it is done: as §2
Data set [8] relates to Amaranthus retroflexus. The data set can be described thus: Weed foliar treatment test. As to conditions: foliar spray, 3 weeks. How it is done:
(§3) Evaluation of herbicidal efficacy was carried out by comparing growth inhibition rate (%) with an untreated group, while evaluation of phytotoxicity was carried out by comparing growth inhibition rate (%) with the state of a complete eradication group, and were evaluated at 11 levels indicated below. [table] Soil was filled into a 1/6000 are pot followed by seeding with Digitaria ciliaris, Chenopodium album and Amaranthus retroflexus, covering with soil, and cultivating in a glass greenhouse at an average atmospheric temperature of 25° C. Wettable powder of Target Compound (I) shown in Table 1 prepared in compliance with the preparation examples were diluted with water to the prescribed amount of chemical and uniformly sprayed onto the weeds using 15 liters of sprayed water per are when Digitaria ciliaris had grown to the 1.0 to 2.0 leaf stage. After treating for 3 weeks in a glass greenhouse at an average atmospheric temperature of 25° C., the herbicidal efficacy thereof was investigated, Evaluation of herbicidal efficacy was carried out in the same manner as the above-mentioned Test Example 1.

The subject of data set [9] is Chenopodium album. The experiment in a line: Weed foliar treatment test. As to conditions: foliar spray, 3 weeks. As for the experimental part: as §3
Data set [10] deals with Digitaria ciliaris. The data set can be described thus: Weed foliar treatment test. As to conditions: foliar spray at 1.0 to 2.0 leaf stage of Digitaria ciliaris, 3 weeks. How it is done: as §3

Regarding `N#Cc1cnn(-c2nn3c(c2Cl)CCCC3)c1N(CC1CC1(F)F)C(=O)C(F)(F)F` (centres unmarked) [Compound 186], the “herbicidal efficacy (growth inhibition rate level) Echinochloa crus-galli” value in data set [1] (1g a.i./10a) and in [1] (5g a.i./10a) was 10 (10: 100%) throughout. The “herbicidal efficacy (growth inhibition rate level) Monochoria vaginalis” value in data set [2] (1g a.i./10a) and in data set [2] (5g a.i./10a) was 9 (9: 90% to less than 100%) each time. Moreover, the “herbicidal efficacy (growth inhibition rate level) Scirpus juncoides” value in data set [3] (1g a.i./10a) was 9 (9: 90% to less than 100%); in data set [3] (5g a.i./10a), 10 (10: 100%). Moreover, the “phytotoxicity (growth inhibition rate level) Rice plants” value is reported as 0 (0 (exponent): 0% to less than 10% (growth inhibition rate)) in data set [4] (1g a.i./10a) and 1 (1: 10% to less than 20%) in data set [4] (5g a.i./10a). Besides, the “herbicidal efficacy (growth inhibition rate level) Amaranthus retroflexus” value in data set [5] (5g a.i./10a), in data set [5] (10g a.i./10a), in data set [8] (5g a.i./10a) and in data set [8] (10g a.i./10a) was 10 (10: 100%) throughout. The “herbicidal efficacy (growth inhibition rate level) Chenopodium album” value in data set [6] (5g a.i./10a), in [6] (10g a.i./10a), in data set [9] (5g a.i./10a) and in data set [9] (10g a.i./10a) was 10 (10: 100%) throughout. Also, the “herbicidal efficacy (growth inhibition rate level) Digitaria ciliaris” value in data set [7] (5g a.i./10a), in [7] (10g a.i./10a), in data set [10] (5g a.i./10a) and in data set [10] (10g a.i./10a) was 10 (10: 100%) each time.

With `N#Cc1cnn(-c2nn3c(c2Br)CCCC3)c1N(CC1CC1)C(=O)C(F)(F)F` [Compound 148], the “herbicidal efficacy (growth inhibition rate level) Echinochloa crus-galli” value in [1] (1g a.i./10a) is recorded as 8 (8: 80% to less than 90%); in data set [1] (5g a.i./10a), 10 (10: 100%). In addition, the “herbicidal efficacy (growth inhibition rate level) Monochoria vaginalis” value in data set [2] (1g a.i./10a) was 7 (7: 70% to less than 80%); in data set [2] (5g a.i./10a) it was 9 (9: 90% to less than 100%). Also, the results for the “herbicidal efficacy (growth inhibition rate level) Scirpus juncoides” value in data set [3] (1g a.i./10a) and in data set [3] (5g a.i./10a) were 7 (7: 70% to less than 80%) and 9 (9: 90% to less than 100%), respectively. Moreover, the “phytotoxicity (growth inhibition rate level) Rice plants” value in [4] (1g a.i./10a) and in [4] (5g a.i./10a) was 0 (0 (exponent): 0% to less than 10% (growth inhibition rate)) throughout. The “herbicidal efficacy (growth inhibition rate level) Amaranthus retroflexus” value in data set [5] (5g a.i./10a), in [5] (10g a.i./10a), in data set [8] (5g a.i./10a) and in data set [8] (10g a.i./10a) was 10 (10: 100%) each time. The “herbicidal efficacy (growth inhibition rate level) Chenopodium album” value in [6] (5g a.i./10a), in data set [6] (10g a.i./10a), in data set [9] (5g a.i./10a) and in data set [9] (10g a.i./10a) was 10 (10: 100%) throughout. The “herbicidal efficacy (growth inhibition rate level) Digitaria ciliaris” value in data set [7] (5g a.i./10a), in data set [7] (10g a.i./10a), in [10] (5g a.i./10a) and in data set [10] (10g a.i./10a) was 10 (10: 100%) throughout.

As to `N#Cc1cnn(-c2nn3c(c2Cl)CCCC3)c1NCC1CO1` (centres unmarked) [Control agent 4.129, reference compound], the figures for the “herbicidal efficacy (growth inhibition rate level) Echinochloa crus-galli” value in data set [1] (1g a.i./10a) and in [1] (5g a.i./10a) were 1 (1: 10% to less than 20%) and 3 (3: 30% to less than 40%), respectively. Besides, the “herbicidal efficacy (growth inhibition rate level) Monochoria vaginalis” value in [2] (1g a.i./10a) and in [2] (5g a.i./10a) was 0 (0 (exponent): 0% to less than 10% (growth inhibition rate)) each time. The “herbicidal efficacy (growth inhibition rate level) Scirpus juncoides” value in [3] (1g a.i./10a) is listed as 3 (3: 30% to less than 40%); in [3] (5g a.i./10a), 4 (4: 40% to less than 50%). In addition, the “phytotoxicity (growth inhibition rate level) Rice plants” value is reported as 1 (1: 10% to less than 20%) in [4] (1g a.i./10a) and 2 (2: 20% to less than 30%) in data set [4] (5g a.i./10a). For the same compound, the “herbicidal efficacy (growth inhibition rate level) Amaranthus retroflexus” value in data set [5] (5g a.i./10a) is listed as 6 (6: 60% to less than 70%); in data set [5] (10g a.i./10a), 7 (7: 70% to less than 80%); in [8] (5g a.i./10a), 7 (7: 70% to less than 80%); in data set [8] (10g a.i./10a) it was 7 (7: 70% to less than 80%). The “herbicidal efficacy (growth inhibition rate level) Chenopodium album” value in [6] (5g a.i./10a) is reported as 6 (6: 60% to less than 70%); in data set [6] (10g a.i./10a), 6 (6: 60% to less than 70%); in data set [9] (5g a.i./10a), 6 (6: 60% to less than 70%); in data set [9] (10g a.i./10a) it was 7 (7: 70% to less than 80%). Moreover, the “herbicidal efficacy (growth inhibition rate level) Digitaria ciliaris” value is 4 (4: 40% to less than 50%) in data set [7] (5g a.i./10a), 5 (5: 50% to less than 60%) in data set [7] (10g a.i./10a), 4 (4: 40% to less than 50%) in data set [10] (5g a.i./10a) and 5 (5: 50% to less than 60%) in data set [10] (10g a.i./10a).

As for `N#Cc1cnn(-c2nn3c(c2Cl)CCCC3)c1NC1CC1` [Control agent 4.84, reference compound], the “herbicidal efficacy (growth inhibition rate level) Echinochloa crus-galli” value in [1] (1g a.i./10a) was 3 (3: 30% to less than 40%); in data set [1] (5g a.i./10a) it was 5 (5: 50% to less than 60%). Also, the “herbicidal efficacy (growth inhibition rate level) Monochoria vaginalis” value in data set [2] (1g a.i./10a) is on record as 2 (2: 20% to less than 30%); in [2] (5g a.i./10a) it was 3 (3: 30% to less than 40%). The “herbicidal efficacy (growth inhibition rate level) Scirpus juncoides” value is recorded as 3 (3: 30% to less than 40%) in data set [3] (1g a.i./10a) and 4 (4: 40% to less than 50%) in data set [3] (5g a.i./10a). The “phytotoxicity (growth inhibition rate level) Rice plants” value in [4] (1g a.i./10a) is listed as 0 (0 (exponent): 0% to less than 10% (growth inhibition rate)); in data set [4] (5g a.i./10a), 2 (2: 20% to less than 30%). The “herbicidal efficacy (growth inhibition rate level) Amaranthus retroflexus” value is 6 (6: 60% to less than 70%) in data set [5] (5g a.i./10a), 6 (6: 60% to less than 70%) in [5] (10g a.i./10a), 6 (6: 60% to less than 70%) in [8] (5g a.i./10a) and 7 (7: 70% to less than 80%) in data set [8] (10g a.i./10a). The “herbicidal efficacy (growth inhibition rate level) Chenopodium album” value was 6 (6: 60% to less than 70%) in [6] (5g a.i./10a), 6 (6: 60% to less than 70%) in data set [6] (10g a.i./10a), 6 (6: 60% to less than 70%) in [9] (5g a.i./10a) and 7 (7: 70% to less than 80%) in [9] (10g a.i./10a). For the same compound, the “herbicidal efficacy (growth inhibition rate level) Digitaria ciliaris” value is recorded as 5 (5: 50% to less than 60%) in data set [7] (5g a.i./10a), 5 (5: 50% to less than 60%) in [7] (10g a.i./10a), 5 (5: 50% to less than 60%) in data set [10] (5g a.i./10a) and 6 (6: 60% to less than 70%) in [10] (10g a.i./10a).
